Measured values from ChEMBL document CHEMBL4613212, “Insights of synthetic analogues of anti-leprosy agents” (Bioorg Med Chem, 2019).
Values after ≈ are worked out from the molar mass of the structure shown.

Assays:
[1] = system: Mycobacterium leprae; assay: Anti-leprotic activity against rifampicin-susceptible Mycobacterium leprae subcultures at 4 weeks assessed as [3H]thymidine uptake per 5 times 10^7 cells at 0.2 mg/L incubated for 24 hrs (reference value: 1.41 +/- 0.20 pmol); assay type: functional
[2] = system: Mycobacterium leprae; assay: Anti-leprotic activity against rifampicin-susceptible Mycobacterium leprae primary cultures at 4 weeks assessed as ATP level per 10^7 cells at 0.4 mg/L measured by bioluminescence assay (reference value: 332 +/- 46 pg); assay type: functional
[3] = system: Mycobacterium leprae; assay: Anti-leprotic activity against rifampicin-susceptible Mycobacterium leprae subcultures at 4 weeks assessed as ATP level per 10^7 cells at 0.4 mg/L measured by bioluminescence assay (reference value: 425 +/- 64 pg); assay type: functional
[4] = system: Mycobacterium leprae; assay: Anti-leprotic activity against rifampicin-susceptible Mycobacterium leprae primary cultures at 4 weeks assessed as [3H]thymidine uptake per 5 times 10^7 cells at 0.4 mg/L incubated for 24 hrs (reference value: 1.05 +/- 0.16 pmol); assay type: functional
[5] = system: Mycobacterium leprae; assay: Anti-leprotic activity against rifampicin-susceptible Mycobacterium leprae primary cultures at 4 weeks assessed as ATP level per 10^7 cells at 0.3 mg/L measured by bioluminescence assay (reference value: 332 +/- 46 pg); assay type: functional
[6] = system: Mycobacterium leprae; assay: Anti-leprotic activity against rifampicin-susceptible Mycobacterium leprae subcultures at 4 weeks assessed as ATP level per 10^7 cells at 0.3 mg/L measured by bioluminescence assay (reference value: 425 +/- 64 pg); assay type: functional
[7] = system: Mycobacterium tuberculosis; assay: Antimycobacterial activity against Mycobacterium tuberculosis H37Rv by BACTEC radiometric growth assay; assay type: functional
[8] = system: Mycobacterium leprae; assay: Anti-leprotic activity against rifampicin-susceptible Mycobacterium leprae subcultures at 4 weeks assessed as [3H]thymidine uptake per 5 times 10^7 cells at 0.4 mg/L incubated for 24 hrs (reference value: 1.41 +/- 0.20 pmol); assay type: functional
[9] = system: Mycobacterium tuberculosis; assay: Antitubercular activity against Mycobacterium tuberculosis H37Rv ATCC 27294 incubated for 7 days by microplate alamar blue assay; assay type: functional; conditions: H37Rv ATCC 27294, 168 h
[10] = system: Mycobacterium leprae; assay: Anti-leprotic activity against rifampicin-susceptible Mycobacterium leprae primary cultures at 4 weeks assessed as [3H]thymidine uptake per 5 times 10^7 cells at 0.2 mg/L incubated for 24 hrs (reference value: 1.05 +/- 0.16 pmol); assay type: functional
[11] = system: Mycobacterium leprae; assay: Anti-leprotic activity against rifampicin-susceptible Mycobacterium leprae primary cultures at 4 weeks assessed as [3H]thymidine uptake per 5 times 10^7 cells at 0.3 mg/L incubated for 24 hrs (reference value: 1.05 +/- 0.16 pmol); assay type: functional
[12] = system: Mycobacterium leprae; assay: Inhibition of PGL1 synthesis in Mycobacterium leprae infected Swiss Webster mouse macrophages assessed as decrease in [U-14C]PA incorporation at 2 uM preincubated for 4 days post infection followed by [U-14C]PA addition and measured after 7 days by liquid scintillation counter analysis relative to control; assay type: functional
[13] = system: Mycobacterium leprae; assay: Anti-leprotic activity against rifampicin-susceptible Mycobacterium leprae subcultures at 4 weeks assessed as [3H]thymidine uptake per 5 times 10^7 cells at 0.3 mg/L incubated for 24 hrs (reference value: 1.41 +/- 0.20 pmol); assay type: functional
[14] = system: Mycobacterium leprae; assay: Anti-leprotic activity against Mycobacterium leprae infected in BALB/c weanling mouse assessed as bacteria killing at 20 mg/kg, ip administrated for 60 days and measured after 1 year by most probable number technique analysis relative to control; assay type: functional
[15] = system: Mycobacterium leprae; assay: Anti-leprotic activity against Mycobacterium leprae infected in BALB/c weanling mouse assessed as bacteria killing at 20 mg/kg, ip administrated for 60 days and measured after 1 year by Spearman-Karber technique analysis relative to control; assay type: functional
[16] = Cytotoxicity against LPS-induced human monocytes assessed as cell viability at 50 uM by tryphan blue staining based assay relative to control; parameters: species or system Monocyte; conditions: read-out: Activity
[17] = system: Monocyte; assay: Antiinflammatory activity in human monocytes assessed as inhibition of LPS-induced TNFaplha production at 25 uM preincubated for 15 mins followed by LPS addition and measured after 4 hrs by ELISA relative to control; assay type: functional
[18] = system: Monocyte; assay: Antiinflammatory activity in human monocytes assessed as inhibition of LPS-induced TNFaplha production at 5 uM preincubated for 15 mins followed by LPS addition and measured after 4 hrs by ELISA relative to control; assay type: functional
[19] = system: Monocyte; assay: Antiinflammatory activity in human monocytes assessed as inhibition of LPS-induced TNFaplha production at 0.5 uM preincubated for 15 mins followed by LPS addition and measured after 4 hrs by ELISA relative to control; assay type: functional
[20] = Cytotoxicity against LPS-induced human monocytes assessed as cell viability at 0.5 uM by tryphan blue staining based assay relative to control; parameters: species or system Monocyte; conditions: read-out: Activity
[21] = Cytotoxicity against LPS-induced human monocytes assessed as cell viability at 5 uM by tryphan blue staining based assay relative to control; parameters: species or system Monocyte; conditions: read-out: Activity
[22] = system: Monocyte; assay: Antiinflammatory activity in human monocytes assessed as inhibition of LPS-induced TNFaplha production at 50 uM preincubated for 15 mins followed by LPS addition and measured after 4 hrs by ELISA relative to control; assay type: functional
[23] = Cytotoxicity against LPS-induced human monocytes assessed as cell viability at 25 uM by tryphan blue staining based assay relative to control; parameters: species or system Monocyte; conditions: read-out: Activity
[24] = system: Mycobacterium leprae; assay: Anti-leprotic activity against rifampicin-susceptible Mycobacterium leprae primary cultures at 4 weeks assessed as [3H]thymidine uptake per 5 times 10^7 cells at 0.1 mg/L incubated for 24 hrs (reference value: 1.05 +/- 0.16 pmol); assay type: functional
[25] = system: Mycobacterium leprae; assay: Anti-leprotic activity against rifampicin-susceptible Mycobacterium leprae primary cultures at 4 weeks assessed as ATP level per 10^7 cells at 0.1 mg/L measured by bioluminescence assay (reference value: 332 +/- 46 pg); assay type: functional
[26] = system: Mycobacterium leprae; assay: Anti-leprotic activity against rifampicin-susceptible Mycobacterium leprae subcultures at 4 weeks assessed as ATP level per 10^7 cells at 0.1 mg/L measured by bioluminescence assay (reference value: 425 +/- 64 pg); assay type: functional
[27] = system: Mycobacterium leprae; assay: Anti-leprotic activity against rifampicin-susceptible Mycobacterium leprae subcultures at 4 weeks assessed as [3H]thymidine uptake per 5 times 10^7 cells at 0.1 mg/L incubated for 24 hrs (reference value: 1.41 +/- 0.20 pmol); assay type: functional
[28] = system: Mycobacterium leprae; assay: Anti-leprotic activity against rifampicin-susceptible Mycobacterium leprae subcultures at 4 weeks assessed as ATP level per 10^7 cells at 0.2 mg/L measured by bioluminescence assay (reference value: 425 +/- 64 pg); assay type: functional
[29] = system: Mycobacterium leprae; assay: Anti-leprotic activity against rifampicin-susceptible Mycobacterium leprae primary cultures at 4 weeks assessed as ATP level per 10^7 cells at 0.2 mg/L measured by bioluminescence assay (reference value: 332 +/- 46 pg); assay type: functional

CO[C@H]1/C=C/O[C@@]2(C)Oc3c(C)c(O)c4c(O)c(c(/C=N/N5CCN(C)CC5)c(O)c4c3C2=O)NC(=O)/C(C)=C\C=C\[C@H](C)[C@H](O)[C@@H](C)[C@@H](O)[C@@H](C)[C@H](OC(C)=O)[C@@H]1C [RIFAMPIN] gave an Activity [1] of 0 pmol, an Activity [2] of 0 pg and an Activity [3] of 0 pg. The Activity [4] was 0 pmol, the Activity [5] was 0 pg and the Activity [6] was 0 pg. For the same compound, the MIC [7] was 2 µg/mL (≈ 2.43 µM), the Activity [8] was 0 pmol and the MIC [9] was 25 µg/mL (≈ 30.4 µM). The Activity [10] was 0.7 pmol, the Activity [11] was 0 pmol and the inhibition at 2 µM [12] was 86%. The Activity [13] was 0.73 pmol.

NC[C@H]1O[C@H](O[C@H]2[C@H](O)[C@@H](O[C@H]3O[C@H](CO)[C@@H](O)[C@H](N)[C@H]3O)[C@H](N)C[C@@H]2N)[C@H](N)C[C@@H]1O [TOBRAMYCIN] gave an Activity [14] of 28.7% and an Activity [15] of 37%.

For GENTAMICIN, the Activity [14] was 58.5% and the Activity [15] was 60%.

With O=C1c2ccccc2C(=O)N1c1ccc(F)c(F)c1 the viability at 50 µM [16] was 78%, the inhibition at 25 µM [17] was 100% and the inhibition at 5 µM [18] was 84%. The inhibition at 0.5 µM [19] was < 10%, the viability at 0.5 µM [20] was 92% and the viability at 5 µM [21] was 95%. It also gave an inhibition at 50 µM [22] of 100% and a viability at 25 µM [23] of 88%.

Work on CCCN1CCN(c2cc(O)c3nc4c5c6c7c(C)c(O)c5c(=O)c(c-4oc3c2)NC(=O)/C(C)=C\C=C\[C@H](C)[C@H](O)[C@@H](C)[C@@H](O)[C@@H](C)[C@H](OC(C)=O)[C@H](C)[C@@H](OC)/C=C/O[C@@](C)(O7)C6=O)CC1 yielded an Activity [24] of 0.97 pmol, an Activity [1] of 1.3 pmol and an Activity [2] of 0 pg. For the same compound, the Activity [3] was 0 pg, the Activity [4] was 0 pmol and the Activity [5] was 0 pg. For the same compound, the Activity [25] was 298 pg, the Activity [6] was 0 pg and the Activity [26] was 369 pg. The Activity [27] was 0 pmol, the Activity [8] was 0 pmol and the Activity [10] was 0.79 pmol. It also gave an Activity [11] of 0 pmol, an Activity [28] of 0 pg and an Activity [29] of 245 pg. The Activity [13] was 0.84 pmol.

CCC(C)N1CCN(c2cc(O)c3nc4c5c6c7c(C)c(O)c5c(=O)c(c-4oc3c2)NC(=O)/C(C)=C\C=C\[C@H](C)[C@H](O)[C@@H](C)[C@@H](O)[C@@H](C)[C@H](OC(C)=O)[C@H](C)[C@@H](OC)/C=C/O[C@@](C)(O7)C6=O)CC1 (stereo in doubt; form 1) gave an Activity [24] of 0.92 pmol, an Activity [1] of 1.18 pmol and an Activity [2] of 0 pg. It also gave an Activity [3] of 0 pg, an Activity [4] of 0 pmol and an Activity [5] of 0 pg. The Activity [25] was 279 pg, the Activity [6] was 0 pg and the Activity [26] was 335 pg. The Activity [27] was 0 pmol, the Activity [8] was 0 pmol and the Activity [10] was 0.76 pmol. For the same compound, the Activity [11] was 0 pmol, the Activity [28] was 235 pg and the Activity [29] was 233 pg. It also gave an Activity [13] of 0.84 pmol.
